Measurements reported in patent US10960020B2, “Modulation of PCSK9 and LDLR through DRP1 inhibition” (THE BRIGHAM AND WOMEN'S HOSPITAL, INC., priority 2016, dated 2021).

Tests used:
[1] = test system: DRP1 protein; assay: Western blot, HepG2 DRP1 protein; type: cell-based, human; settings: HepG2, Mdivi-1 50 μM, 24 hours
[2] = test system: BCL-XL; assay: BCL-XL mRNA and protein, HepG2; type: cell-based, human; settings: HepG2, Mdivi-1 50 μM, 24 hours
Source text: Human cells and mouse liver was homogenized with TriZolTM (Life Technologies, Grand Island, N.Y.) to isolate RNA. QuantiTectTM Reverse Transcription Kit (Qiagen, Hilden, Germany) was used for reverse transcription on total RNA. cDNA was generated using the Quanta gScriptTM cDNA Synthesis Kit (Bioscience Inc., Gaithersburg, Md.). mRNA levels were quantified on a 7900HT real-time PCR system (Thermo Fisher Scientific) using TaqManTM real-time PCR with the following probes: Hs02758991_g1 (human GAPDH); Mm99999915_g1 (mouse Gapdh); Hs00236329 m1 (human BCL2L1); Hs00247147_m1 (human DRP1); Hs00545399_m1 (human PCSK9); Mm01263610_m1 (mouse Pcsk9); Hs00168352_m1 (human HMGCR); […]); Hs00181192_m1 (human LDLR); Mm00440169_m1 (mouse Ldlr); Hs01088691_m1 (human SREBP1); Mm00550338_m1 (mouse Srebp1); Hs00231674_m1 (human SREBP1a); custom primer (human SREBP1c); Hs01081784_m1 (human SREBP2); Mm01306292_m1 (mouse Srebp2); Hs01005622_m1 (human FASN); […]); Hs00167041_m1 (human HNF1A); Mm00493434_m1 (mouse Hnf1a); Hs00171168 (human APOE); Hs01059118_m1 (human ABCA1); Hs01103582_s1 (human JUN). Mouse SREBP-1c was analyzed by SYBERTM green PCR with the following primers: [NT] […] Protein concentrations were determined by the Pierce BCA AssayTM (Thermo Fisher Scientific). […] Protein levels were normalized to β-ACTIN, α-TUBULIN, or LAMIN A/C with the use of NIH ImageJ software for quantification.

[3] = test system: PCSK9 secretion in HepG2 cells; assay: Secreted PCSK9 ELISA, HepG2 media; type: cell-based, human; settings: HepG2, 24 hours; Mdivi-1 50 μM, pitavastatin 1 μM, T0901317 1 μM
Experimental: Pitavastatin and T0901317 were synthesized and provided by Kowa Company, Ltd. (Tokyo, Japan), and treated at a dose of 1 μM in all experiments. […] Mdivi-1 in DMSO vehicle was added at a concentration of 50 μM in all experiments. Mdivi-1 in DMSO vehicle was added to cell culture media in a 50 mL tube, vortexed hard for several minutes and then incubated at 37° C. prior to adding to cells to ensure the compound was fully solubilized.
HepG2 cells were obtained from ATCC (Manassas, Va.), and cultured in EMEM with L-glutamine (ATCC) medium, 1% pen/strep, with and without 10% FBS (Thermo Fisher Scientific, Waltham, Mass.) in 12-well plates (Corning, Durham, N.C.). HepG2 cells were plated at a density of 60-70% prior to treatment to avoid clumping. […] Cell viability was assessed by Trypan Blue exclusion using live/dead cell counting on a Countess™ II LT automated cell counter (Thermo Fisher Scientific).

[4] = test system: hepatocyte cytoskeleton; assay: Cytoskeleton gene panel and actin/microtubule confocal immunofluorescence; type: cell-based; settings: HepG2 and primary human hepatocytes, Mdivi-1 50 μM, 24 hours
Experimental: Filamentous actin was stained using CytoPainter Phallodin iFluor 555 Reagent (2 μl phalloidin in 2000 μl PBS with 1% BSA; Abcam), with a 60 minute incubation at room temperature. Slides were incubated with anti-alpha tubulin (1:200, Abcam, ab15246), PDI (1:100; 3501, Cell Signaling Technology), and anti-mitochondria (ab92824, Abcam) for 2 hours at room temperature or overnight at 4° C., followed by incubation with Alexa Fluor 488-labelled secondary antibody (1:200, Thermo Fisher Scientific). Nuclear staining was performed with DAPI (Thermo Fisher Scientific). Prior to visualization 200 μL PBS was added to each well. Liver tissue and cells were examined using a confocal microscope Al (Nikon Instruments Inc., Melville, N.Y.), and all images were processed with Elements 3.20 software (Nikon Instruments Inc.). Human cells and mouse liver was homogenized with TriZolTM (Life Technologies, Grand Island, N.Y.) to isolate RNA. […]

[5] = test system: HepG2 cells; assay: HepG2 viability by Trypan Blue exclusion; type: cell-based, human; settings: HepG2, Mdivi-1, 24 hours
Experimental: HepG2 cells were obtained from ATCC (Manassas, Va.), and cultured in EMEM with L-glutamine (ATCC) medium, 1% pen/strep, with and without 10% FBS (Thermo Fisher Scientific, Waltham, Mass.) in 12-well plates (Corning, Durham, N.C.). HepG2 cells were plated at a density of 60-70% prior to treatment to avoid clumping. Freshly isolated primary human hepatocytes plated at 100% confluency on 12-well plates were obtained from Thermo Fisher Scientific. Three donors were used to obtain experimental data: person, person, and a person. Primary hepatocytes were treated immediately upon arrival and cultured in William's E medium with hepatic maintenance supplement pack (Thermo Fisher Scientific), 1% pen/strep (VWR; Radnor, Pa.), and 10% FBS (Thermo Fisher Scientific). Cell viability was assessed by Trypan Blue exclusion using live/dead cell counting on a Countess™ II LT automated cell counter (Thermo Fisher Scientific).

[6] = test system: p62; assay: Western blot, HepG2 p62 and p (S349) p62; type: cell-based, human; settings: HepG2, 24 hours; Mdivi-1 50 μmol/L, MG132 0.3 μmol/L

COc1cc(-n2c(S)nc3ccccc3c2=O)c(Cl)cc1Cl [Mdivi-1, 3-(2,4-Dichloro-5-methoxyphenyl)-2,3-dihydro-2-thioxo-4(1H)-quinazolinone]
DRP1 protein content [1]: without altering
BCL-XL abundance (protein) [2]: increased
BCL-XL expression (BCL2L1 mRNA) [2]: increased
PCSK9 secretion change by ELISA [3]: −76.1%
hepatocyte cytoskeleton [4]: did not alter
cell viability [5]: without altering
p62 abundance [6]: strongly increased
p62 phosphorylation [6]: increased
